This note sets out measurements from patent publication US20260069656A1, “Nutritive Polypeptides and Formulations Thereof, and Methods of Production and Use Thereof” (Axcella Health Inc., priority 2013, published 2026).

The subject of one data set is insulin. Nature of the data set: Plasma insulin after acute oral dosing in rats, Rat Insulin ELISA. The format is in vivo. Conditions: Rat Insulin ELISA kit; oral gavage. Here is the method:
Animals were treated and acutely dosed with various test articles as part of pharmacokinetic rodent experiments according to methods described herein. Unless otherwise stated all dosing was at 2.85 g/kg body weight. All treatment groups except for SEQID-00240 which had n=5 rats, and SEQID-00587 which had n=3, contained n=4 rats.
An Ultra-Sensitive Rat Insulin ELISA Kit was obtained from Crystal Chem, Inc. (Catalog number 90060, Downers Grove, IL). Plates were washed using a BioTek ELx50 microplate strip washer (BioTek, Winooski, VT). Absorbance was read on a Synergy Mx monochromator-based microplate reader (BioTek, Winooski, VT). Data was analyzed using Microsoft Excel version 14.0.7128.5000 (Microsoft Corporation, Redmond, WA) and GraphPad Prism version 6.03 for Windows (GraphPad Software, La Jolla, CA).
The ELISA kit was pre-warmed to room temperature for 30 minutes prior to beginning the assay set up. The standard curve dilutions were prepared in accordance with the manufacturer's instructions for running the assay in Wide Range format. […]
Anti-Insulin Enzyme Conjugate Working Solution was prepared by combining 2 volumes Anti-Insulin Enzyme Conjugate Stock with 1 volume Enzyme Conjugate Diluent, and mixing by pipetting up and down and gently vortexing. […] The absorbance was read on the Synergy Mx plate reader at 450 nm and 630 nm. […]
In general terms: In an ELISA, binding on a coated surface is turned into a signal by an enzyme label.

Data set [1] is described as follows: Thermostability, ProteoStat Thermal Shift Stability Kit, temperature of aggregation. Type of data set: physicochemical. The settings on record: pH 7.1; heated from 25° C. to 95° C. Here is the method: Thermostability. The thermostability of proteins in a buffer cocktail of Citric Acid and Dibasic Sodium Phosphate over a pH range of 2.8 to 7.1 (preparation described above in Table E31B) was determined using the ProteoStat® Thermal Shift Stability Kit (Enzo Life Sciences) according to the manufacturer's standard protocol. Briefly, protein solutions (˜10 mg/ml) containing 1× ProteoStat TS Detection Reagent were heated from 25° C. to 95° C. at a rate of 0.5° C. per 30 sec using a real-time PCR (rtPCR) thermocycler (BioRad) equipped with a plate reader (SynergyMx, Biotek) while monitoring the fluorescence with a Texas Red filter.

With “SEQID-00240: nutritive polypeptide naturally produced in Cow, recombinantly expressed in E. coli (DLEGSLEQEKKLRMDLERAKRKLEGDLKLAQESTMDIENDKQQLDEKLKK; listed as Bos taurus)”, the “plasma insulin concentration vs time 0” value in the data set with insulin was “statistically significant increase in plasma insulin at 15 and 30 minutes post gavage compared to time 0”. Also, the “Tagg (pH 7.1)” value in data set [1] is greater than 95.
